From ChEMBL document CHEMBL3886923, “BTK inhibitors” (2016)

Biological target: Tyrosine-protein kinase BTK (Homo sapiens, UniProt Q06187)
Assay: LANCE-TR-FRET Assay: Assay Method B: BTK enzymatic activity was determined with the LANCE (Lanthanide Chelate Excite) TR-FRET (Time-resolved fluorescence resonance energy transfer) assay. In this assay, the potency (IC50) of each compound was determined from an eleven point (1:3 serial dilution; final compound concentration range in assay from 1 μM to 0.017 nM) titration curve using the following outlined procedure. To each well of a black non-binding surface Corning 384-well microplate (Corning Catalog #3820), 5 nL of compound (2000 fold dilution in final assay volume of 10 μL) was dispensed, followed by the addition of 7.5 μL of 1× kinase buffer (50 mM Hepes 7.5, 10 mM MgCl2, 0.01% Brij-35, 1 mM EGTA, 0.05% BSA & 1 mM DTT) containing 5.09 pg/μL (66.67 pM) of BTK enzyme (recombinant protein from baculovirus-transfected Sf9 cells: full-length BTK, 6HIS-tag cleaved). Following a 60 minute compound & enzyme incubation, each reaction was initiated by the addition of 2.5 μL 1× kinase buffer containing 8 μM biotinylated "A5" peptide (Biotin-EQEDEPEGDYFEWLE-NH2), and 100 μM ATP. The final reaction in each well of 10 μL consists of 50 pM hBTK, 2 μM biotin-A5-peptide, and 25 μM ATP. Phosphorylation reactions were allowed to proceed for 120 minutes. […]

Tyrosine-protein kinase BTK, sequence (Q06187 whole entry): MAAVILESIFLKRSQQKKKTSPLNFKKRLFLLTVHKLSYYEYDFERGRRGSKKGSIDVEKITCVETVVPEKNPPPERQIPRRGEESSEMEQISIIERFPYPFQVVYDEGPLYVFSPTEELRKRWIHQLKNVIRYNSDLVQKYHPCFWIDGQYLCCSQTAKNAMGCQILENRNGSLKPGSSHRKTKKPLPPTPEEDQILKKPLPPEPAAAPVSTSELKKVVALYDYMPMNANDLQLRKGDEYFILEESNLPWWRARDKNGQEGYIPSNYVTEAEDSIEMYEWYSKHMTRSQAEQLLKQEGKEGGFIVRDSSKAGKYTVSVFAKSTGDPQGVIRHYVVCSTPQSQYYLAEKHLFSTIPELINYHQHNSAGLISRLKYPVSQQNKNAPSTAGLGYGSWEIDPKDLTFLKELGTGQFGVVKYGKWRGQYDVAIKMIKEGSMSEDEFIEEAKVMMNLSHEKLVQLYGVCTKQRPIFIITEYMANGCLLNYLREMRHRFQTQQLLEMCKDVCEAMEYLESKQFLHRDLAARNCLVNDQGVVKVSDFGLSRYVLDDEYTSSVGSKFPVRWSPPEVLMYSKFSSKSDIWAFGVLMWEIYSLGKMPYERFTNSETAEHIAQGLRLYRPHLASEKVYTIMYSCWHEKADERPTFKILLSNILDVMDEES

IC50: 2.7 nM
SMILES: Cn1ncc2c1CCC[C@@H]2n1nc(-c2ccc(C(=O)Nc3cc(C(F)(F)F)ccn3)cc2)c2c(N)ncnc21
